Patent US20260137698A1, “CYCLIN-DEPENDENT KINASE 7 INHIBITORS” (JOINT STOCK COMPANY «BIOCAD», priority 2022, published 2026)

Tested on: NCI-H69 xenografts (small cell lung cancer)
Experiment: Antitumor activity in vivo, subcutaneous NCI-H69 xenograft model
Design: species or system BALB/c Nude mice
Experimental: The antitumor activity of CDK7_1187 in vivo was evaluated on a subcutaneous xenograft model of the NCl-H69 line (small cell lung cancer, ATCC® HTB-119™) transplanted to BALB/c Nude mice.
NCl-H69 cell line was cultured in RPMI-1640 medium (PanEco, Russia) with enrichment of the basal growth medium with L-glutamine at a concentration of 2 mM (PanEco, Russia) and 10% fetal bovine serum (Gibco, Thermo Fisher Scientific, USA).
The study used 20 BALB/c Nude mice (females) obtained from the Federal State Budgetary Scientific Institution “Federal Research Center Institute of Cytology and Genetics, Siberian Branch of Russian Academy of Sciences” (ICG SB RAS). BALB/c Nude mice were subcutaneously administered into the right lateral side of the body with […] of suspension containing 5×10^6 NCI-H69 tumor cells and Matrigel (Corning® Matrigel® Basement Membrane Matrix) at 1:1 ratio.
Linear dimensions of the tumor were determined using an electronic caliper. Volume of the tumor node was determined by the formula (1):
[formula] • where L and W are large and small diameters of the tumor node, respectively.
The efficacy of test product was measured by the index of tumor growth inhibition (TGI, %) calculated according to the formula (2):
[formula] • where Vc and Vp are mean volumes of the tumor node in the control group and the group of animals that received the test substance, respectively.
After achieving an average tumor volume of 130 mm^3, animals were divided into 2 groups of 10 animals, volume of the tumor node was used as a randomization criterion. The day of the first administration of the product was designated as day 0.
Test substance CDK7_1187 was administered intragastrically at a dose of 6 mg/kg daily, for 21 days. Before each administration, CDK7_1187 was diluted in 5% solution of glucose (Solopharm, Russia) and 0.1% solution of DMSO (Sigma, USA). The control group received a 5% solution of glucose and a 0.1% solution of DMSO in an analogous volume.
Statistical analysis was carried out using the GraphPad Prism 9 software package. Mann-Whitney U test was employed to assess the significance of differences when comparing the volumes of tumor nodes. Differences were identified as significant if p<0.05.

How did the “tumor volume versus control group” value (6 mg/kg daily, days 17 and 21, Mann-Whitney p<0.05) turn out when `CN1CCCc2c(-c3nc(N[C@H]4CCC(C)(C)NC4)ncc3C(F)(F)F)c[nH]c2C1=O` [CDK7_1187, 3-(2-{[(3S)-6,6-dimethylpiperidin-3-yl]amino}-5-(trifluoromethyl)py-rimidin-4-yl)-7-methyl-1H,4H,5H,6H,7H, 8H-pyrrolo[2,3-c]azepin-8-one] was run?
The value was “statistically significantly less”.

And the “index of tumor growth inhibition (TGI)” value (BALB/c Nude mice, 6 mg/kg intragastrically daily for 21 days, end of the observation period)?
Its value is 48%.

And the TGI index (Day 9, intragastrically 6 mg/kg daily)?
The TGI index was 10%.

And the TGI index (Day 13, intragastrically 6 mg/kg daily)?
Its TGI index is 36%.

What about the TGI index (Day 17, intragastrically 6 mg/kg daily) of the same molecule?
The TGI index was 40%.

What about the TGI index (Day 21, intragastrically 6 mg/kg daily) of the same molecule?
Its TGI index is 48%.
